Patent US8198450B2, “Quinolinone derivatives and their pharmaceutical compositions” (Novartis AG, priority 2006, dated 2012)

Key:
[1] = clinic: treatment of asthma and chronic obstructive pulmonary disease; assay type: in vivo
stability of the salt = assay type: physicochemical; conditions: before and after micronisation, with or without excipients, with and without moisture
hygroscopicity = assay type: physicochemical
[2] = equilibration in solvents, crystalline form; assay type: physicochemical; conditions: 1 day at 25° C. in water, ethanol and isopropanol
solubility in ethanol = assay type: physicochemical

Structure (SMILES)	tested in the clinic for the treatment of asthma and chronic obstructive pulmonary disease ([1]; clinic)	cough exhibited by certain patients on administration ([1]; particularly first administration)	stability (stability of the salt)	hygroscopicity (hygroscopicity)	change of crystalline form after equilibration [2]	solubility in ethanol (solubility in ethanol)
CCc1cc2c(cc1CC)CC(NC[C@H](O)c1ccc(O)c3[nH]c(=O)ccc13)C2.O=C(O)/C=C\C(=O)O [(R)-5-[2-(5,6-diethyl-indan-2-ylamino)-1-hydroxyethyl]-8-hydroxy-1H-quinolin-2-one maleate]	tested favourably	cough				
CCc1cc2c(cc1CC)CC(NC[C@H](O)c1ccc(O)c3[nH]c(=O)ccc13)C2 [Example 12, (R)-5-[2-(5,6-diethyl-indan-2-ylamino)-1-hydroxyethyl]-8-hydroxy-1H-quinolin-2-one glycolate]			especially stable	substantially not hydroscopic	no change of crystalline form	low
CC(=O)O.CCc1cc2c(cc1CC)CC(NC[C@H](O)c1ccc(O)c3[nH]c(=O)ccc13)C2 [Example 15, (R)-5-[2-(5,6-diethyl-indan-2-ylamino)-1-hydroxyethyl]-8-hydroxy-1H-quinolin-2-one acetate]			especially stable	substantially not hydroscopic	no change of crystalline form	low
CCc1cc2c(cc1CC)CC(NC[C@H](O)c1ccc(O)c3[nH]c(=O)ccc13)C2.O=C(O)CC(=O)O [Example 21, (R)-5-[2-(5,6-diethyl-indan-2-ylamino)-1-hydroxyethyl]-8-hydroxy-1H-quinolin-2-one hydrogen malonate]			especially stable	substantially not hydroscopic	no change of crystalline form	low
